{
  "source": "patent US20170342451A1",
  "about": "“BIOSYNTHESIS OF PACLITAXEL INTERMEDIATE” (Board of Trustees of Michigan State University, priority 2012, published 2017)",
  "key": {"TycA-S563A": {"target": "TycA-S563A (Brevibacillus parabrevis, UniProt P09095, S563A)", "format": "biochemical, Brevibacillus brevis", "design": "The T-domain mutant TycA-S563A was also subcloned into a pSU18 vector and heterologously expressed as a His6-fusion; made in house; host or cells: Escherichia coli BL21(DE3)", "procedure": "(§1) Each (S)-α-phenylalanine, (R)-β-phenylalanine, and (2R,3S)-phenylisoserine substrate (at 1 mM) was separately incubated (31° C.) in 100-μL reactions containing 100 mM HEPES (pH 8.0), ATP (1 mM), MgCl2 (3 mM) and TycA or TycA-S563A (20 μg in 0.1-mL assays) to establish steady-state conditions relative to protein concentration and time. Under steady-state conditions, each (S)-α-phenylalanine, (R)-β-phenylalanine, and (2R,3S)-phenylisoserine substrate, at ten concentration intervals from 5 to 1000 μM (in duplicate), was separately incubated with TycA or TycA-S563A for 1 min at 31° C. The reactions were acid-quenched (pH 3 with 10% formic acid), and the biosynthetic products were quantified by LC-ESI-MRM mass spectrometry (Anderson and Hunter, 2006) on the LC-QP/ESI-MS/MS fitted with a C18 Ascentis Express column (2.5×50 mm, 2.7 μm) at 30° C. An aliquot (5 μL) of each sample was loaded onto the column and the analytes were eluted with the CoA-Elution Gradient (see procedures described above). The effluent from the chromatography column was directed to the mass spectrometer where the first quadrupole mass analyzer (in negative ion mode) was set to select for the molecular ion of a biosynthesized (S)-α-phenylalanine-AMP, (R)-β-phenylalanine-AMP, and (2R,3S)-phenylisoserine-AMP. […]"}, "TycA": {"target": "T1, TycA (Brevibacillus parabrevis, UniProt P09095)", "T1 construct": "this wild-type tycA cDNA encoding the A-, T-, and E-domains was subcloned into a pSU18 vector; made in house; host or cells: Escherichia coli BL21(DE3)", "T1 sequence (P09095 with tags, fused parts or gaps)": "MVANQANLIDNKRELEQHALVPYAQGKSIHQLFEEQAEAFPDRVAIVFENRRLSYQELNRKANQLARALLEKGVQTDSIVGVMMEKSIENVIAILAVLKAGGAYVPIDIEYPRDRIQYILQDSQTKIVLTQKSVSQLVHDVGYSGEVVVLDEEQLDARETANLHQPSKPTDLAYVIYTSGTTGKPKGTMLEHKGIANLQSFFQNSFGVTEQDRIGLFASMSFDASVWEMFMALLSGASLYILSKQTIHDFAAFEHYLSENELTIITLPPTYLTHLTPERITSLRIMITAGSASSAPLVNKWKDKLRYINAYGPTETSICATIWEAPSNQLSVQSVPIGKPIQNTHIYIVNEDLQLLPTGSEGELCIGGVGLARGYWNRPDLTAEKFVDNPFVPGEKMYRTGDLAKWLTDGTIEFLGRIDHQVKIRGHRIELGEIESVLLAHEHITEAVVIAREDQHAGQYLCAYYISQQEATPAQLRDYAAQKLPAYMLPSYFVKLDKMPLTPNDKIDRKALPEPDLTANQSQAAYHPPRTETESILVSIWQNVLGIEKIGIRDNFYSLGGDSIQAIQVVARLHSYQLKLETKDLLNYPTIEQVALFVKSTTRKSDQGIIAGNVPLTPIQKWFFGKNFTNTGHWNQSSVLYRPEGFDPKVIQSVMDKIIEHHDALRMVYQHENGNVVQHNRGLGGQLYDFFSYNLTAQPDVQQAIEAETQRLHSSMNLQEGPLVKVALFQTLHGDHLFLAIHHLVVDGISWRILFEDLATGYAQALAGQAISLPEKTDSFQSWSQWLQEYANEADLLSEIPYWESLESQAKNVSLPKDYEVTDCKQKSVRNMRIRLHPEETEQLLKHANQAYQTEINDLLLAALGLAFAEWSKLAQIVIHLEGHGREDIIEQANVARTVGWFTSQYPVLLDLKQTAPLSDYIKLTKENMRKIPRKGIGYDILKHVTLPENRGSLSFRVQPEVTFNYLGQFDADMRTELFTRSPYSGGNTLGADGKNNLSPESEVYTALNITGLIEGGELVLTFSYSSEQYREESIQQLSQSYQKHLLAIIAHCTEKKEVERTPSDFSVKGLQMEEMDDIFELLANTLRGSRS", "format": "biochemical, Brevibacillus brevis", "details": "ATP at apparent saturation", "procedure": "as §1"}},
  "data": [
    {"smiles": "N[C@H](CC(=O)O)c1ccccc1", "note": "[(R)-β-Phe, (R)-β-phenylalanine]", "values": [
      {"measurement": "kcat^ATP/KM of TycA-S563A lower than the value for conversion to the CoA thioester", "setting": "TycA-S563A", "result": "about 46 fold"},
      {"measurement": "kcat^ATP", "setting": "TycA-S563A; acyl-AMP formation, ATP at apparent saturation", "result": "0.001 ± 0.00017", "unit": "s⁻¹"},
      {"measurement": "kcat^ATP/KM of TycA lower than the value for conversion to the CoA thioester", "setting": "TycA", "result": "~15", "unit": "fold"},
      {"measurement": "kcat^ATP", "setting": "TycA; acyl-AMP formation", "result": "0.00167 ± 0.00017", "unit": "s⁻¹"}
    ]}
  ]
}
